Experimental data taken from patent US20210275488A1, “NOVEL COMPOUND ISOLATED FROM CERVI PARVUM CORNU, AND PHARMACEUTICAL USES THEREOF” (FNG RESEARCH CO., LTD., priority 2018, published 2021).

Assays:
NO production = test: Inhibition of NO production in LPS-treated peritoneal macrophages (Griess reagent); assay type: cell-based, C57BL/6 mice; conditions: 24 hours, LPS control group = 100
Protocol: (§1) As experimental animals, 8-week-old C57BL/6 mice were bred for 7 days under the environment of a temperature of 22±2° C., a relative humidity of 65±5% and a 12-hour cycle in light and dark, and then adapted to the laboratory environment, and then used for the experiment. Solid feed (Samyang feed) and water were sufficiently supplied.
(§2) HBSS was intraperitoneally injected into a mouse to extract macrophages, which was centrifuged at 3,000 rpm for 5 minutes, and then 100 units/mL of penicillin/streptomycin was added to DMEM medium with 10% fetal bovine serum (FBS), and peritoneal macrophage was isolated. It was incubated in a 37° C., 5% CO2 incubator for 24 hours, and then used in the experiment.
The cultured peritoneal macrophages were suspended in DMEM containing 10% FBS, dispensed into a 96-well plate at 5×10^5 cells/well and incubated for 24 hours in a 37° C., 5% CO2 incubator, and replaced with new DMEM medium. Then, the peritoneal macrophages were treated with each of the compounds of Examples 1 and 2 and Comparative Example at different concentrations (10 μg/ml, 100 μg/ml, and 200 μg/ml, respectively), and LPS (1 μg/ml) was treated. Then, the cells were incubated for 24 hours. After incubation, the supernatant was separated, centrifuged at 3000 rpm for 5 minutes, and the separated supernatant was dispensed onto a new microplate. The normal group was untreated, and the control group was treated with only LPS (1 μg/ml) on the peritoneal macrophages.
The same amount of Griess reagent (1% sulfanilamide, 0.1% naphthyl-ethylenediamine dihydrochloride, 2% phosphoric acid) was treated, and reacted at room temperature for 10 minutes. After the culture solution was reacted with the Griess solution for […], the absorbance (OD) was measured at 540 nm.

peritoneal macrophages = test: Evaluation of cytotoxicity using MTT assay; assay type: cell-based, C57BL/6 mice; conditions: 24 hours
Protocol: as §1, §2
100 uL of the cultured peritoneal macrophages were dispensed into a 96-well plate at 3×10^5 cells/well and cultured overnight. After removing the medium, the peritoneal macrophage was treated with the compounds of Example 1 (PCA glycerol) and Example 2 (CPA glycerol) at different concentrations (10 μg/ml, 100 μg/ml, and 200 μg/ml, respectively), and then incubated for 24 hours in a 37° C., 5% CO2 incubator. After incubation, the medium was removed, 40 uL of MTT (5 mg/mL) reagent was dispensed and incubated for 4 hours in a CO2 incubator, the MTT reagent was removed, and 600 uL of DMSO reagent was dispensed, and then left at room temperature for 30 minutes. Then, the absorbance (OD) was measured at 540 nm with a microplate reader.

IL-1β = test: Inhibition of IL-1β production in LPS-induced mouse peritoneal macrophages (ELISA); assay type: cell-based; conditions: LPS (1 μg/ml), 12 hours
Protocol: as §1, §2
(§3) The secretion amount of IL-6, IL-1β and TNF-α secreted from mouse peritoneal macrophages induced by lipopolysaccharide (LPS), which is an inflammatory response inducer, was measured by an ELISA assay (Millipore, USA) to thereby evaluate the anti-inflammatory activity.
(§4) In order to obtain a cell culture solution, mouse peritoneal macrophages were adjusted to 3×10^5 cells/mL, inoculated into a 96-well plate, cultured for 24 hours, and then the compounds of Example 1 (PCA glycerol), Example 2 (CPA glycerol) and Comparative Example (PLA glycerol) were treated at different concentrations (10 μg/ml, 100 μg/ml, and 200 μg/ml, respectively), and LPS (1 μg/ml) was treated. The normal group was untreated, and the control group was treated with only LPS (1 μg/ml) on peritoneal macrophages. After culturing for 12 hours, a supernatant was obtained by centrifugation. ELISA was run in microplates coated with anti-mouse IL-6, IL-1β and TNF-α as the capture antibody. Then, the cells were washed with phosphate buffered saline (PBST) containing 0.05% Tween 20, blocked with 10% FBS, and washed with PBST. The cell culture supernatant was dispensed into the wells, and reacted at room temperature for 2 hours. After the reaction, washing was performed with PBST and dilute biotinylated anti-mouse IL-6, IL-1β and TNF-α detection antibody and streptavidin-horseradish peroxydase conjugate were dispensed and reacted at room temperature for 1 hour. Then, washing was performed again with PBST, and an OPD solution was added, and then the mixture was subjected to dark reaction at room temperature for 30 minutes. After the reaction was terminated with 2N H2504, the absorbance was measured at 450 nm using a microplate reader.

TNF-α = test: Inhibition of TNF-α production in LPS-induced mouse peritoneal macrophages (ELISA); assay type: cell-based; conditions: LPS (1 μg/ml), 12 hours
Protocol: as §1, §2, §3, §4

IL-6 = test: Inhibition of IL-6 production in LPS-induced mouse peritoneal macrophages (ELISA); assay type: cell-based; conditions: LPS (1 μg/ml), 12 hours
Protocol: as §1, §2, §3, §4

[1] = system: neutropenia induced by an anticancer agent (gemcitabine); test: Mouse experiment of antineoplastic chemotherapy-induced neutropenia (gemcitabine); assay type: in vivo, C57BL/6 mice; conditions: for Number of neutrophils: Gemcitabine (50 mg/kg) i.p. daily 3 weeks, compound 50 mg/kg oral daily 3 weeks, neutrophils in 1 μl of blood; for reduction in the number of neutrophils: 3 weeks, relative to normal group
Protocol: 50 mg/kg of gemcitabine, used as an anticancer agent, was injected intraperitoneally into C57BL/6 mice every day for 3 weeks and used as a control group. 50 mg/kg of the compounds of Example 1, Example 2, and Comparative Example 1 were orally administered for 3 weeks every day, and after 3 weeks, the number of neutrophils in 1 μl of blood was measured using an automatic blood sample analyzer (Auto Hematology Analyzer BC-5900, Mindray), and the results are shown in Table 7 and FIG. 11 below.

[2] = system: neutropenia induced by an anticancer agent (tamoxifen); test: Mouse experiment of antineoplastic chemotherapy-induced neutropenia (tamoxifen); assay type: in vivo, C57BL/6 mice; conditions: for Number of neutrophils: Tamoxifen (50 mg/kg) i.p. daily 3 weeks, compound 50 mg/kg oral daily 3 weeks, neutrophils in 1 μl of blood; for decrease in the number of neutrophils: tamoxifen 50 mg/kg plus compound 50 mg/kg oral
Protocol: 50 mg/kg of Tamoxifen, used as an anticancer agent, was intraperitoneally injected into C57BL/6 mice every day for 3 weeks and used as a control group, and 50 mg/kg of the compounds of Example 1, Example 2, and Comparative Example 1 were orally administered for 3 weeks every day, and after 3 weeks, the number of neutrophils in 1 μl of blood was measured using an automatic blood sample analyzer (Auto Hematology Analyzer BC-5900, Mindray), and the results are shown in Table 8 and FIG. 12 below.

[3] = gemcitabine 50 mg/kg plus compound 50 mg/kg oral
[4] = 3 weeks, relative to normal group

Molecule | NO production rate (%) (NO production; compound 10 μg/ml) | NO production rate (%) (NO production; compound 100 μg/ml) | NO production rate (%) (NO production; compound 200 μg/ml) | Cell viability (%) (peritoneal macrophages; 10 μg/ml) | Cell viability (%) (peritoneal macrophages; 100 μg/ml) | Cell viability (%) (peritoneal macrophages; 200 μg/ml) | IL-1β Production amount (IL-1β; compound 10 μg/ml) | IL-1β Production amount (IL-1β; compound 100 μg/ml) | IL-1β Production amount (IL-1β; compound 200 μg/ml) | TNF-α production amount (TNF-α; compound 10 μg/ml) | TNF-α production amount (TNF-α; compound 100 μg/ml) | TNF-α production amount (TNF-α; compound 200 μg/ml) | IL-6 production amount (IL-6; compound 10 μg/ml) | IL-6 production amount (IL-6; compound 100 μg/ml) | IL-6 production amount (IL-6; compound 200 μg/ml) | Number of neutrophils [1] | reduction in the number of neutrophils [1, 3] | Number of neutrophils [2] | decrease in the number of neutrophils [2, 4] | other results
1-Palmitoyl-2-Conjugated-Linoleoyl-3-Acetyl Glycerol [Example 1] | 52 ± 3% | 43 ± 3% | 37 ± 4% | 100 ± 2.1% | 98.3 ± 1.9% | 98.1 ± 1.2% | 40 ± 2.9 pg/mL | 28 ± 2.3 pg/mL | 26 ± 2.8 pg/mL | 170 ± 8 pg/mL | 153 ± 11 pg/mL | 121 ± 10 pg/mL | 321 ± 22 pg/mL | 225 ± 23 pg/mL | 180 ± 25 pg/mL | 1198 ± 43 µL⁻¹ | about 2% | 1146 ± 63 µL⁻¹ | about 6.3% | 
Nc1ccn([C@@H]2O[C@H](CO)[C@@H](O)C2(F)F)c(=O)n1 [gemcitabine, reference compound] |  |  |  |  |  |  |  |  |  |  |  |  |  |  |  |  |  |  |  | reduction in the number of neutrophils ([1]; mice treated with gemcitabine 50 mg/kg i.p. alone (control group)): about 45%
CC/C(=C(\c1ccccc1)c1ccc(OCCN(C)C)cc1)c1ccccc1 [tamoxifen, Tamoxifen, reference compound] |  |  |  |  |  |  |  |  |  |  |  |  |  |  |  |  |  |  |  | decrease in number of neutrophils ([2]; mice treated with tamoxifen 50 mg/kg i.p. alone (control group), 3 weeks, relative to normal group): about 37%
CCCCC/C=C\C/C=C\CCCCCCCC(=O)OC(COC(C)=O)COC(=O)CCCCCCCCCCCCCCC (centres unmarked) [Comparative Example, 1-Palmitoyl-2-Linoleoyl-3-Acetyl Glycerol, reference compound] | 56 ± 3% | 45 ± 2% | 41 ± 3% |  |  |  | 43 ± 2.2 pg/mL | 31 ± 2.4 pg/mL | 31 ± 3.1 pg/mL | 184 ± 21 pg/mL | 155 ± 12 pg/mL | 137 ± 7 pg/mL | 364 ± 16 pg/mL | 251 ± 24 pg/mL | 203 ± 25 pg/mL | 1047 ± 42 µL⁻¹ | 14.5% | 1066 ± 88 µL⁻¹ | 12.9% | 
1-Conjugated-Linoeoyl-2-Palmitoyl-3-Acetyl Glycerol [Example 2] | 50 ± 2% | 44 ± 3% | 34 ± 1% | 100 ± 0.9% | 98.3 ± 1.7% | 98.0 ± 2.8% | 40 ± 1.7 pg/mL | 32 ± 2.4 pg/mL | 28 ± 1.7 pg/mL | 175 ± 7 pg/mL | 151 ± 10 pg/mL | 123 ± 7 pg/mL | 325 ± 13 pg/mL | 234 ± 20 pg/mL | 179 ± 17 pg/mL | 1142 ± 62 µL⁻¹ | 6.7% | 1124 ± 57 µL⁻¹ | about 8.2% | 
